Test results: paper PMC6270570, “New Flurbiprofen Derivatives: Synthesis, Membrane Affinity and Evaluation of in Vitro Effect on β-Amyloid Levels” (Molecules, 2013)
Where two headings read alike, the source gives them in different places.

Legend:
[1] = IAM-HPLC affinity for membrane phospholipids (logKIAM/W); format: physicochemical; settings: IAM.PC.MG column, pH 7.0 phosphate buffer/acetonitrile, extrapolated to 100% aqueous eluent
Description: n-Octanol/water partition coefficients were theoretically calculated by the program clogP for windows version 2.0 (Biobyte Corp., Claremont, CA, USA). Affinity for membrane phospholipids, so called “phospholipophilicity”, was measured by HPLC on a phospholipid stationary phase. […] liquid chromatograph (Waters-Millipore, Milford, MA, USA), equipped with a 7125 Rheodyne injection valve and a 486 UV detector (Waters) set at 246 nm, was used. The column was an IAM.PC.MG (Immobilized Artificial Membrane-PhosphatidylCholine-MethylGlycolate) (4.6 mm × 150 mm) (Regis Chemical Company, Morton Grove, IL, USA). The mobile phase was 0.01 M phosphate buffer at pH 7.0 and acetonitrile at percentages ranging from 10 to 35 percent (v/v) (from 1.0 to 4.0 mL/min). The chromatography was carried out at room temperature. All samples were dissolved in methanol (ca. 10^-3 M) and 20 μL samples were injected in the chromatograph. Chromatographic retention data are expressed as the logarithm of the capacity factor, log k, defined as: log k = log [(tr - t0)/t0] (1) where tr and t0 are the retention times of the drug and a non-retained compound (citric acid), respectively. The log k values relative to 100% aqueous eluent (logKIAM/W) were calculated by performing a polycratic method of extrapolation. Each compound was eluted with at least three different mobile phases containing acetonitrile in different percentages (φ). […] All values of log k reported are the average of at least three measurements; the 95% confidence interval never exceeded 0.04 for each log k value. Possible occurrence of retention changes due to column aging was monitored by checking the retention times of five test compounds (amlodipine, p-nitroaniline, toluene, isradipine, and ketoprofen).

[2] = PAMPA-BBB permeability (porcine polar brain lipid extract); format: in vitro ADME; settings: PAMPA
Description: (§1) The following protocol was applied to measure the Pe through the artificial membrane to predict oral absorption and BBB permeation. In order to study the g.i. permeability, a 2% solution (w/v) of egg lecithin (phosphatidyl choline > 98%, PC) in dodecane was employed as an artificial membrane solution. The effective permeability of BBB was measured using phospholipid mixture from porcine polar brain lipid extract, composed by PC 12.6%, phosphatidylethanolamine (PE) 33.1%, phosphatidylserine (PS) 18.5%, phosphatidylinositol (PI) 4.1%, phospatidic acid (PA) 0.8% and 30.9% of other compounds (purchased from Avantis Polar Lipids, Alabaster, AL, USA). Each donor filtration plate well was then impregnated with 5 µL of this solution carefully, and immediately after 150 µL of phosphate buffer (pH 7.4/pH 6.5), containing co-drug 1 500 µM and iPrOH 20% as co-solvent was added. Then the drug-filled donor plate was placed into the acceptor plate that had been prefilled with the same buffer (300 µL) as acceptor solution. After plate lid was replaced, the resulting assembled donor-acceptor plates were incubated at r.t. for 2 h for PAMPA-GI and 18 h for PAMPA-BBB, following which drugs concentration in the acceptor and donor solutions were determined by HPLC [37].
(§2) Log Pe can be calculated from the equation below: [drawing 10] (2) where Pe is the effective permeability coefficient (cm x s^−1), VD is volume of donor compartment (0.15 cm^3) and VA is volume of acceptor compartment (0.30 cm^3), A is effective filter area (0.28 cm^2), t is incubation time for the assay (s), Cacceptor is the concentration of the compound in the acceptor compartment at the completion of the assay, and Cequilibrium is the concentration of compound at theoretical equilibrium.

Aβ-42 = experiment: Western blotting of Aβ-42 expression in CTXTNA2 astrocytes (in vitro γ-secretase activity); format: cell-based, rat; settings: 24 h
Description: CTXTNA2 cell line, established from primary cultures of type 1 astrocytes from brain frontal cortex tissue of 1 day old rats, was obtained by ECACC (Salisbury, UK). Cells have been maintained in DMEM, 10% FBS at 37 °C, 5% CO2 until sub-confluence and incubated for 24 h with a DMSO solution of drug (concentrations ranging from 1 µM to 100 µM). For detection of cell viability, a Trypan blue dye exclusion test has been performed.
Cell lysates (20 µg) have been electrophoresed and transferred to nitrocellulose membrane. Nitrocellulose membranes, blocked in 5% non-fat milk, 10 mmol/L Tris pH 7.5, 100 mmol/L NaCl, 0.1% Tween-20, have been probed with mouse APP (Millipore, Billerica, MA, USA) and Aβ (Alpha Diagnostic Intl, San Antonio, TX, USA) monoclonal antibodies (Santa Cruz Biotechnology, Santa Cruz, CA, USA), then incubated in the presence of specific enzyme conjugated IgG horseradish peroxidase. Immunoreactive bands have been detected by ECL detection system (Amersham Intl., Buckinghamshire, UK) and analysed by densitometry. Densitometric values, expressed as Integrated Optical Intensity (I.O.I.), have been estimated in a CHEMIDOC XRS system by the QuantiOne 1-D analysis software (BioRad, Richmond, CA, USA). Values obtained have been normalized basing on densitometric values of internal β tubulin. Statistical analysis has been performed using the analysis of variance (ANOVA). Results have been expressed as mean ± SD. Values of p < 0.05 have been considered statistically significant.

APP = settings: 24 h
Description: For detection of cell viability, a Trypan blue dye exclusion test has been performed [33].
Cell lysates (20 µg) have been electrophoresed and transferred to nitrocellulose membrane. […] Immunoreactive bands have been detected by ECL detection system (Amersham Intl., Buckinghamshire, UK) and analysed by densitometry. Densitometric values, expressed as Integrated Optical Intensity (I.O.I.), have been estimated in a CHEMIDOC XRS system by the QuantiOne 1-D analysis software (BioRad, Richmond, CA, USA). Values obtained have been normalized basing on densitometric values of internal β tubulin. Statistical analysis has been performed using the analysis of variance (ANOVA). Results have been expressed as mean ± SD. Values of p < 0.05 have been considered statistically significant.

[3] = PAMPA-GI permeability (egg lecithin in dodecane); format: in vitro ADME; settings: read-out: PAMPA-GI Pe
Description: as §1, §2

[4] = pH 7.4, 18 h of incubation, read-out: PAMPA-BBB Pe

Compound: C[C@@H](C(=O)N[C@H]1C(=O)N(C)c2ccccc2-c2ccccc21)c1ccc(-c2ccccc2)c(F)c1 [Compound 4, (2R)-2-(2-Fluoro-1,1'-biphenyl-4-yl)-N-[(7R)-5-methyl-6-oxo-6,7-dihydro-5H-dibenzo[b,d]azepin-7-yl]propanamide]
- LogKIAM/W [1]: 3.21
- Papp at 18 h, 500 µM ([2]; read-out: Pe, BBB penetration): ≥ 4 ×10⁻⁶ cm/s
- Expression of Aβ-42 (Aβ-42; 1 µM): (11.0 ± 0.4) × 10^−2
- Expression of Aβ-42 (Aβ-42; 10 µM): (12.1 ± 0.4) × 10^−2
- Expression of Aβ-42 (Aβ-42; 100 µM): (16.2 ± 0.7) × 10^−2
- melting point: 100 to 103 °C
- Expression of APP (APP; 1 µM): (51.3 ± 2.6) × 10^−2
- Expression of APP (APP; 10 µM): (39.9 ± 1.6) × 10^−2
- Expression of APP (APP; 100 µM): (60.1 ± 2.7) × 10^−2

Compound: CC(C)[C@H](O)C(=O)N[C@@H](C)C(=O)N[C@@H]1C(=O)N(C)CCc2ccccc21 [LY-450139, reference compound]
- LogKIAM/W [1]: 0.11
- Papp at 2 h, 500 µM ([3]; pH 6.5, 2 h of incubation): 1.6 ×10⁻⁶ cm/s
- Papp at 2 h, 500 µM ([3]; pH 7.4, 2 h of incubation): 1.8 ×10⁻⁶ cm/s
- Papp at 18 h, 500 µM [2, 4]: 1.4 ×10⁻⁶ cm/s
- Expression of Aβ-42 (Aβ-42; 1 µM): (9.4. ± 0.3) × 10^−2
- Expression of Aβ-42 (Aβ-42; 10 µM): (5.1 ± 0.1) × 10^−2
- Expression of Aβ-42 (Aβ-42; 100 µM): (5.4 ± 0.2) × 10^−2
- Expression of APP (APP; 1 µM): (65.9 ± 2.3) × 10^−2
- Expression of APP (APP; 10 µM): (60.0 ± 1.6) × 10^−2
- Expression of APP (APP; 100 µM): (58.8 ± 2.5) × 10^−2

Compound: C[C@@H](C(=O)O)c1ccc(-c2ccccc2)c(F)c1 [R-FLU, (R)-enantiomer of flurbiprofen, reference compound]
- LogKIAM/W [1]: 1.82
- Papp at 2 h, 500 µM ([3]; pH 6.5, 2 h of incubation): 2.4 ×10⁻⁶ cm/s
- Papp at 2 h, 500 µM ([3]; pH 7.4, 2 h of incubation): 2.1 ×10⁻⁶ cm/s
- Papp at 18 h, 500 µM [2, 4]: 1.6 ×10⁻⁶ cm/s
- Papp at 18 h, 500 µM ([2]; read-out: Pe, BBB penetration): ≥ 2 ×10⁻⁶ cm/s
- Expression of Aβ-42 (Aβ-42; 1 µM): (20.5 ± 0.7) × 10^−2
- Expression of Aβ-42 (Aβ-42; 10 µM): (19.1 ± 0.5) × 10^−2
- Expression of Aβ-42 (Aβ-42; 100 µM): (14.1 ± 0.7) × 10^−2
- Expression of APP (APP; 1 µM): (60.0 ± 1.3) × 10^−2
- Expression of APP (APP; 10 µM): (54.5 ± 2.3) × 10^−2
- Expression of APP (APP; 100 µM): (52.1 ± 2.1) × 10^−2

Compound: C[C@H](NC(=O)Cc1cc(F)cc(F)c1)C(=O)N[C@H](C(=O)OC(C)(C)C)c1ccccc1 [DAPT, reference compound]
- LogKIAM/W [1]: 1.61
- Papp at 2 h, 500 µM ([3]; pH 6.5, 2 h of incubation): 2.5 ×10⁻⁶ cm/s
- Papp at 2 h, 500 µM ([3]; pH 7.4, 2 h of incubation): 2.6 ×10⁻⁶ cm/s
- Papp at 18 h, 500 µM [2, 4]: 2.2 ×10⁻⁶ cm/s
- Expression of Aβ-42 (Aβ-42; 1 µM): (8.3 ± 0.2) × 10−2
- Expression of Aβ-42 (Aβ-42; 10 µM): (6.4 ± 0.1) × 10−2
- Expression of Aβ-42 (Aβ-42; 100 µM): (5.5 ± 0.3) × 10−2
- Expression of APP (APP; 1 µM): (65.4 ± 2.8) × 10−2
- Expression of APP (APP; 10 µM): (62.1 ± 2.8) × 10−2
- Expression of APP (APP; 100 µM): (58.3 ± 1.9) × 10−2

Compound: C[C@H](NC(=O)[C@@H](O)c1cc(F)cc(F)c1)C(=O)N[C@@H]1C(=O)N(C)c2ccccc2-c2ccccc21 [LY-411575, reference compound]
- LogKIAM/W [1]: 1.85
- Papp at 2 h, 500 µM ([3]; pH 6.5, 2 h of incubation): 2.3 ×10⁻⁶ cm/s
- Papp at 2 h, 500 µM ([3]; pH 7.4, 2 h of incubation): 2.5 ×10⁻⁶ cm/s
- Papp at 18 h, 500 µM [2, 4]: 2 ×10⁻⁶ cm/s
- Expression of Aβ-42 (Aβ-42; 1 µM): (8.2 ± 0.1) × 10^−2
- Expression of Aβ-42 (Aβ-42; 10 µM): (6.0 ± 0.1) × 10^−2
- Expression of Aβ-42 (Aβ-42; 100 µM): (4.1 ± 0.2) × 10^−2
- Expression of APP (APP; 1 µM): (64.0 ± 2.4) × 10^−2
- Expression of APP (APP; 10 µM): (54.7 ± 2.0) × 10^−2
- Expression of APP (APP; 100 µM): (57.2 ± 1.2) × 10^−2

Compound: C[C@@H](C(=O)N[C@@H]1C(=O)N(C)c2ccccc2-c2ccccc21)c1ccc(-c2ccccc2)c(F)c1 [Compound 5, (2R)-2-(2-Fluoro-1,1'-biphenyl-4-yl)-N-[(7S)-5-methyl-6-oxo-6,7-dihydro-5H-dibenzo[b,d]azepin-7-yl]propanamide]
- LogKIAM/W [1]: 3.93
- Expression of Aβ-42 (Aβ-42; 1 µM): (17.4. ± 0.3) × 10^−2
- Expression of Aβ-42 (Aβ-42; 10 µM): (17.1 ± 0.6) × 10^−2
- Expression of Aβ-42 (Aβ-42; 100 µM): (17.4. ± 0.5) × 10^−2
- melting point: 102 to 103 °C
- Expression of APP (APP; 1 µM): (41.1 ± 1.7) × 10^−2
- Expression of APP (APP; 10 µM): (44.2 ± 2.1) × 10^−2
- Expression of APP (APP; 100 µM): (49.2 ± 3.2) × 10^−2

Compound: C[C@H](C(=O)N[C@@H]1C(=O)N(C)c2ccccc2-c2ccccc21)c1ccc(-c2ccccc2)c(F)c1 [Compound 7, (2S)-2-(2-Fluoro-1,1'-biphenyl-4-yl)-N-[(7S)-5-methyl-6-oxo-6,7-dihydro-5H-dibenzo[b,d]azepin-7-yl]propanamide]
- LogKIAM/W [1]: 3.21
- Papp at 18 h, 500 µM ([2]; read-out: Pe, BBB penetration): ≥ 4 ×10⁻⁶ cm/s
- Aβ-42 production, effect in words (Aβ-42; 1 µM to 100 µM, without affecting the APP level): highly effective
- Expression of Aβ-42 (Aβ-42; 1 µM): (12.4. ± 0.1) × 10^−2
- Expression of Aβ-42 (Aβ-42; 10 µM): (11.1 ± 0.3) × 10^−2
- Expression of Aβ-42 (Aβ-42; 100 µM): (9.2 ± 0.3) × 10^−2
- melting point: 102 to 104 °C
- Expression of APP (APP; 1 µM): (9.0 ± 0.3) × 10^−2
- Expression of APP (APP; 10 µM): (8.0 ± 0.3) × 10^−2
- Expression of APP (APP; 100 µM): (10.1 ± 3.2) × 10^−2

Compound: C[C@H](C(=O)N[C@H]1C(=O)N(C)c2ccccc2-c2ccccc21)c1ccc(-c2ccccc2)c(F)c1 [Compound 6, (2S)-2-(2-Fluoro-1,1'-biphenyl-4-yl)-N-[(7R)-5-methyl-6-oxo-6,7-dihydro-5H-dibenzo[b,d]azepin-7-yl]propanamide]
- LogKIAM/W [1]: 3.93
- Expression of Aβ-42 (Aβ-42; 1 µM): (19.0 ± 0.6) × 10^−2
- Expression of Aβ-42 (Aβ-42; 10 µM): (16.2 ± 0.5) × 10^−2
- Expression of Aβ-42 (Aβ-42; 100 µM): (13.4 ± 0.7) × 10^−2
- melting point: 104 to 105 °C
- Expression of APP (APP; 1 µM): (11.3 ± 0.4) × 10^−2
- Expression of APP (APP; 10 µM): (10.4 ± 0.2) × 10^−2
- Expression of APP (APP; 100 µM): (13.5 ± 0.5) × 10^−2

Compound: C[C@H](C(=O)O)c1ccc(-c2ccccc2)c(F)c1 [S-Flurbiprofen, reference compound]
- Expression of Aβ-42 (Aβ-42; 1 µM): (18.8. ± 0.6) × 10^−2
- Expression of Aβ-42 (Aβ-42; 10 µM): (19.0 ± 0.7) × 10^−2
- Expression of Aβ-42 (Aβ-42; 100 µM): (15.4 ± 0.3) × 10^−2
- Expression of APP (APP; 1 µM): (60.6 ± 2.5) × 10^−2
- Expression of APP (APP; 10 µM): (65.2 ± 1.8) × 10^−2
- Expression of APP (APP; 100 µM): (53.2 ± 1.9) × 10^−2
